In the test the test system is SYO-1 complex spheroid growth, percent test/control. Kind of test: Anticancer human tumor SYO-1 cell line growth inhibition [Asc].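 On all read-outs here: compound exposure lasted 7 days after spheroids grew 3 days.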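 On viability, T/C: 100% = DMSO vehicle control viability.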 The following applies: for viability, T/C: stronger effect = lower value; for IC50: curve of compound. The method, boiled down: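 Concentration series start at each agent's clinical Cmax, or at 10 microM when none is established, and drop in half-log steps; agents are applied alone or together to complex spheroids built with HUVEC and hMSC.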

Each structure is given as a SMILES string. Values joined by “and” are separate entries in the source; they are usually repeats but may differ in a detail not shown here. Identical values can stand only once.

Usually viability, T/C stands for the ratio of treated to control. As a reminder, the IC50 is the midpoint of a concentration-inhibition curve.

Turning to `COc1c(OCCCN2CCOCC2)ccc2c3n(c(=NC(=O)c4cnc(N)nc4)nc12)CCN3`, the half-inhibitory concentration (IC50) is 741 nM and 900 nM and > 1000 nM. Moreover, the viability, T/C (compound 0.00316 µM) is 111% and 102% and 109%. Besides, where the note is “compound 0.01 µM”, the viability, T/C is 105% and 112% and 114%. The viability, T/C (compound 0.0316 µM) is 95.3% and 108% and 113%. In addition, the viability, T/C (compound 0.1 µM) is 95.4% and 101% and 107%. Further, the viability, T/C (compound 0.316 µM) is 76.1% and 87.7% and 90.5%. The viability, T/C (compound 1 µM) is 40.2% and 46.1% and 63.6%.

Consider `Cc1nc(N2CCC3(CC2)COC(C)C3N)c(CO)nc1Sc1ccnc(N)c1Cl` (stereo unspecified), for which the half-maximal inhibitory concentration (IC50) was above 3000 nM. Also, for the setting “compound 0.00949 µM”, the viability, T/C is 107% and 98.7% and 112%. The viability, T/C (compound 0.03 µM) was 112% and 94% and 111%. In addition, the viability, T/C (compound 0.0949 µM) was 107% and 116% and 103%. Moreover, the viability, T/C (compound 0.3 µM) is 108% and 109% (2×). Besides, the viability, T/C (compound 0.949 µM) is 112% and 114% and 107%. Besides, the viability, T/C (compound 3 µM) is 103% and 100% and 109%.

`C=CC(=O)N1CCN(c2nc(=O)n(-c3c(C)ccnc3C(C)C)c3nc(-c4c(O)cccc4F)c(F)cc23)C(C)C1` (stereo unspecified): the IC50 was above 10000 nM. In addition, the viability, T/C (compound 0.0316 µM) was 100% and 96.9% and 116%. Further, the viability, T/C (compound 0.1 µM) was 108% and 98.8% and 106%. In addition, the viability, T/C (compound 0.316 µM) was 104% (2×) and 99.7%. Under “compound 1 µM”, the viability, T/C was 103% (2×) and 104%. For the same compound, the viability, T/C (compound 3.16 µM) is 98.7% and 95.2% and 101%. For the setting “compound 10 µM”, the viability, T/C was 94.3% and 87.2% and 89.7%.

Values taken from PubChem BioAssay AID1963432 (Molecular Pharmacology Branch, DTP, NCI, 2024).
